Paper PMC8571282 (Nature Communications, 2021)
Values joined by “and” are separate entries in the source; they are usually repeats but may differ in a detail not shown here. Equal entries are not always repeated. Where two headings read alike, the source gives them in different places.

Key:
[1] = test system: SARS-CoV-2 WA1/2020; type: in vivo, ferret (Mustela putorius furo); conditions: Fig 2g, 20 mg kg-1 b.i.d.; for Transform of Nasal lavage RNA copies/uL, Mean 2 (treated group mean): N 4; for Transform of Nasal lavage RNA copies/uL, Mean Diff. (Vehicle - treated): Šídák's multiple comparisons test
[2] = type: in vivo, ferret (Mustela putorius furo); parameters: Temperature, Mean Diff. (Vehicle - treated): unit not given here; conditions: 20 mg kg-1 b.i.d.; for Bodyweight, Mean 2 (treated group mean) / Bodyweight, Mean Diff. (Vehicle - treated): Fig 2e; for Bodyweight, Mean 2 (treated group mean) / Temperature, Mean 2 (treated group mean): N 4; for Bodyweight, Mean Diff. (Vehicle - treated) / Temperature, Mean Diff. (Vehicle - treated): Šídák's multiple comparisons test; for Temperature, Mean 2 (treated group mean) / Temperature, Mean Diff. (Vehicle - treated): Fig 2d
[3] = Single-dose plasma pharmacokinetics in ferrets; conditions: ferret plasma, analyte 441524 after IV '524, 20 mg/kg, 20 mg/kg; for AUC(0-t) / clearance / Cmax: plasma, iv; for AUC(0-t): AUClast; for clearance: Cl_obs

CC(C)C(=O)OCC1OC(C#N)(c2ccc3c(N)ncnn23)C(OC(=O)C(C)C)C1OC(=O)C(C)C (stereo not shown) [GS-62-1763]
Transform of Nasal lavage RNA copies/uL, Mean 2 (treated group mean) ([1]; Row 1 (time)): 0
Transform of Nasal lavage RNA copies/uL, Mean Diff. (Vehicle - treated) ([1]; Row 1 (time)): 0
Transform of Nasal lavage RNA copies/uL, Mean 2 (treated group mean) ([1]; Row 2 (time)): 3.525
Transform of Nasal lavage RNA copies/uL, Mean Diff. (Vehicle - treated) ([1]; Row 2 (time)): 1.479
Transform of Nasal lavage RNA copies/uL, Mean 2 (treated group mean) ([1]; Row 3 (time)): 3.436
Transform of Nasal lavage RNA copies/uL, Mean Diff. (Vehicle - treated) ([1]; Row 3 (time)): 2.713
Transform of Nasal lavage RNA copies/uL, Mean 2 (treated group mean) ([1]; Row 4 (time)): 3.353
Transform of Nasal lavage RNA copies/uL, Mean Diff. (Vehicle - treated) ([1]; Row 4 (time)): 2.648
Transform of Nasal lavage RNA copies/uL, Mean 2 (treated group mean) ([1]; Row 5 (time)): 3.502
Transform of Nasal lavage RNA copies/uL, Mean Diff. (Vehicle - treated) ([1]; Row 5 (time)): 2.475
Bodyweight, Mean 2 (treated group mean) ([2]; Row 1 (time)): 100
Bodyweight, Mean Diff. (Vehicle - treated) ([2]; Row 1 (time)): 0
Bodyweight, Mean 2 (treated group mean) ([2]; Row 2 (time)): 102.1
Bodyweight, Mean Diff. (Vehicle - treated) ([2]; Row 2 (time)): -0.8462
Bodyweight, Mean 2 (treated group mean) ([2]; Row 3 (time)): 104.7
Bodyweight, Mean Diff. (Vehicle - treated) ([2]; Row 3 (time)): -2.64
Bodyweight, Mean 2 (treated group mean) ([2]; Row 4 (time)): 105.7
Bodyweight, Mean Diff. (Vehicle - treated) ([2]; Row 4 (time)): -3.357
Bodyweight, Mean 2 (treated group mean) ([2]; Row 5 (time)): 105.5
Bodyweight, Mean Diff. (Vehicle - treated) ([2]; Row 5 (time)): -2.899
Temperature, Mean 2 (treated group mean) ([2]; Row 1 (time)): 38.58
Temperature, Mean Diff. (Vehicle - treated) ([2]; Row 1 (time)): -0.25
Temperature, Mean 2 (treated group mean) ([2]; Row 2 (time)): 38.45
Temperature, Mean Diff. (Vehicle - treated) ([2]; Row 2 (time)): 0.275
Temperature, Mean 2 (treated group mean) ([2]; Row 3 (time)): 38.68
Temperature, Mean Diff. (Vehicle - treated) ([2]; Row 3 (time)): 0.675
Temperature, Mean 2 (treated group mean) ([2]; Row 4 (time)): 38.4
Temperature, Mean Diff. (Vehicle - treated) ([2]; Row 4 (time)): 0.85
Temperature, Mean 2 (treated group mean) ([2]; Row 5 (time)): 38.33
Temperature, Mean Diff. (Vehicle - treated) ([2]; Row 5 (time)): 0.6

N#CC1(c2ccc3c(N)ncnn23)OC(CO)C(O)C1O (stereo not shown) [compound 441524]
Cl_obs ([3]; individual animals F0201-F0203): 12 mL/min/kg and 17.3 mL/min/kg
AUC(0-t) ([3]; Mean): 81.1 µM·h
AUC(0-t) ([3]; individual animals F0201-F0203): 82 µM·h
clearance ([3]; Mean): 14.4 mL/min/kg
clearance ([3]; individual animals F0201-F0203): 13.9 mL/min/kg
Cmax ([3]; Mean): 54.2 µM
Cmax ([3]; individual animals F0201-F0203): 62.4 µM
